Data from patent US12077503B2, “Substituted cyclic amides and their use as herbicides” (FMC CORPORATION, priority 2015, dated 2024).

How the values were obtained:
Type in all cases: in vivo
[1] = test system: giant foxtail (Setaria faberi); assay: Test G Pre-Emergence Protocol; settings: Setaria faberi, pre-emergence, 312 h, evaluated after 13 days; for pest or weed control at 15.625 g/ha: 15.625 g ai/ha; for pest or weed control at 15.625 g/ha / pest or weed control at 250 g/ha: read-out: Foxtail, Giant damage rating (100=total damage to plant; 0=no damage to plant); for pest or weed control at 62.5 g/ha: 62.5 g ai/ha, 100=total damage to plant, 0=no damage to plant, read-out: plant damage rating, Foxtail, Giant; for pest or weed control at 250 g/ha: 250 g ai/ha
Method in brief: (§1)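 Pre-emergence spray, 15.625/62.5/250 g/ha, vehicle acetone:water 50:50 + 0.5% Tween 20, applied 1 d after sowing. Glasshouse 24/16° C, 14 h light, 65% RH, watered twice daily. Visual damage rating at 13 d, 0–100 scale.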

[2] = test system: ivy-leaved morning glory (Ipomoea hederacea); assay: Test G Pre-Emergence Protocol; settings: Ipomoea, pre-emergence, 312 h, evaluated after 13 days; for pest or weed control at 15.625 g/ha: 15.625 g ai/ha, read-out: Morning-glory, Ivy-leaved damage rating (100=total damage to plant; 0=no damage to plant); for pest or weed control at 62.5 g/ha: 62.5 g ai/ha, 100=total damage to plant, 0=no damage to plant, read-out: plant damage rating, Morningglory, Ivy-leaved; for pest or weed control at 250 g/ha: 250 g ai/ha, read-out: Morningglory, Ivy-leaved damage rating (100=total damage to plant; 0=no damage to plant)
Method in brief: as §1

corn (Zea mays) [3] = assay: Test G Pre-Emergence Protocol; settings: Zea mays, pre-emergence, 312 h, evaluated after 13 days; for plant injury at 15.625 g/ha: 15.625 g ai/ha; for plant injury at 15.625 g/ha / plant injury at 250 g/ha: read-out: Corn damage rating (100=total damage to plant; 0=no damage to plant); for plant injury at 62.5 g/ha: 62.5 g ai/ha, 100=total damage to plant, 0=no damage to plant, read-out: plant damage rating, Corn; for plant injury at 250 g/ha: 250 g ai/ha
Method in brief: as §1

[4] = test system: velvetleaf (Abutilon theophrasti); assay: Test G Pre-Emergence Protocol; settings: Abutilon theophrasti, pre-emergence, 312 h, evaluated after 13 days; for pest or weed control at 15.625 g/ha: 15.625 g ai/ha; for pest or weed control at 15.625 g/ha / pest or weed control at 250 g/ha: read-out: Velvetleaf damage rating (100=total damage to plant; 0=no damage to plant); for pest or weed control at 62.5 g/ha: 62.5 g ai/ha, 100=total damage to plant, 0=no damage to plant, read-out: plant damage rating, Velvetleaf; for pest or weed control at 250 g/ha: 250 g ai/ha
Method in brief: as §1

[5] = test system: barnyardgrass (Echinochloa crus-galli); assay: Test G Pre-Emergence Protocol; settings: Echinochloa crus-galli, pre-emergence, 312 h, evaluated after 13 days; for pest or weed control at 15.625 g/ha: 15.625 g ai/ha, read-out: Barnyard grass damage rating (100=total damage to plant; 0=no damage to plant); for pest or weed control at 62.5 g/ha: 62.5 g ai/ha, 100=total damage to plant, 0=no damage to plant, read-out: plant damage rating, Barnyardgrass; for pest or weed control at 250 g/ha: 250 g ai/ha, read-out: Barnyardgrass damage rating (100=total damage to plant; 0=no damage to plant)
Method in brief: as §1

[6] = test system: redroot pigweed (Amaranthus retroflexus); assay: Test G Pre-Emergence Protocol; settings: Amaranthus retroflexus, pre-emergence, 312 h, evaluated after 13 days; for pest or weed control at 15.625 g/ha: 15.625 g ai/ha; for pest or weed control at 15.625 g/ha / pest or weed control at 250 g/ha: read-out: Pigweed, Redroot damage rating (100=total damage to plant; 0=no damage to plant); for pest or weed control at 62.5 g/ha: 62.5 g ai/ha, 100=total damage to plant, 0=no damage to plant, read-out: plant damage rating, Pigweed, Redroot; for pest or weed control at 250 g/ha: 250 g ai/ha
Method in brief: as §1

[7] = test system: giant foxtail (Setaria faberi); assay: Test G Post-Emergence Protocol; settings: Setaria faberi, post-emergence, 312 h; for pest or weed control at 15.625 g/ha: 15.625 g ai/ha, evaluated after 13 days (100=total damage to plant; 0=no damage to plant), read-out: Foxtail, Giant damage rating; for pest or weed control at 62.5 g/ha: 62.5 g ai/ha, read-out: Foxtail, Giant damage rating (100=total damage to plant; 0=no damage to plant); for pest or weed control at 62.5 g/ha / pest or weed control at 250 g/ha: evaluated after 13 days; for pest or weed control at 250 g/ha: 250 g ai/ha, read-out: damage to plant, Foxtail, Giant (100=total damage to plant; 0=no damage to plant)
Method in brief: (§2)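 Values are percent visual injury at 13 days after treatment (0 none, 100 total). Treatment was a post-emergence spray at 15.625, 62.5 or 250 g/ha on 8-day-old pot plants kept at 24/16 °C.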

[8] = test system: ivy-leaved morning glory (Ipomoea hederacea); assay: Test G Post-Emergence Protocol; settings: Ipomoea, post-emergence, 312 h; for pest or weed control at 15.625 g/ha: 15.625 g ai/ha, evaluated after 13 days (100=total damage to plant; 0=no damage to plant), read-out: Morningglory, Ivy-leaved damage rating; for pest or weed control at 62.5 g/ha: 62.5 g ai/ha, read-out: Morningglory, Ivy-leaved damage rating (100=total damage to plant; 0=no damage to plant); for pest or weed control at 62.5 g/ha / pest or weed control at 250 g/ha: evaluated after 13 days; for pest or weed control at 250 g/ha: 250 g ai/ha, read-out: damage to plant, Morningglory, Ivy-leaved (100=total damage to plant; 0=no damage to plant)
Method in brief: as §2

corn (Zea mays) [9] = assay: Test G Post-Emergence Protocol; settings: Zea mays, post-emergence, 312 h; for plant injury at 15.625 g/ha: 15.625 g ai/ha, evaluated after 13 days (100=total damage to plant; 0=no damage to plant), read-out: Corn damage rating; for plant injury at 62.5 g/ha: 62.5 g ai/ha, read-out: Corn damage rating (100=total damage to plant; 0=no damage to plant); for plant injury at 62.5 g/ha / plant injury at 250 g/ha: evaluated after 13 days; for plant injury at 250 g/ha: 250 g ai/ha, read-out: damage to plant, Corn (100=total damage to plant; 0=no damage to plant)
Method in brief: as §2

[10] = test system: velvetleaf (Abutilon theophrasti); assay: Test G Post-Emergence Protocol; settings: Abutilon theophrasti, post-emergence, 312 h; for pest or weed control at 15.625 g/ha: 15.625 g ai/ha, evaluated after 13 days (100=total damage to plant; 0=no damage to plant), read-out: Velvetleaf damage rating; for pest or weed control at 62.5 g/ha: 62.5 g ai/ha, read-out: Velvetleaf damage rating (100=total damage to plant; 0=no damage to plant); for pest or weed control at 62.5 g/ha / pest or weed control at 250 g/ha: evaluated after 13 days; for pest or weed control at 250 g/ha: 250 g ai/ha, read-out: damage to plant, Velvetleaf (100=total damage to plant; 0=no damage to plant)
Method in brief: as §2

[11] = test system: barnyardgrass (Echinochloa crus-galli); assay: Test G Post-Emergence Protocol; settings: Echinochloa crus-galli, post-emergence, 312 h; for pest or weed control at 15.625 g/ha: 15.625 g ai/ha, evaluated after 13 days (100=total damage to plant; 0=no damage to plant), read-out: Barnyardgrass damage rating; for pest or weed control at 62.5 g/ha: 62.5 g ai/ha, read-out: Barnyardgrass damage rating (100=total damage to plant; 0=no damage to plant); for pest or weed control at 62.5 g/ha / pest or weed control at 250 g/ha: evaluated after 13 days; for pest or weed control at 250 g/ha: 250 g ai/ha, read-out: damage to plant, Barnyardgrass (100=total damage to plant; 0=no damage to plant)
Method in brief: as §2

[12] = test system: redroot pigweed (Amaranthus retroflexus); assay: Test G Post-Emergence Protocol; settings: Amaranthus retroflexus, post-emergence, 312 h; for pest or weed control at 15.625 g/ha: 15.625 g ai/ha, evaluated after 13 days (100=total damage to plant; 0=no damage to plant), read-out: Pigweed, Redroot damage rating; for pest or weed control at 62.5 g/ha: 62.5 g ai/ha, read-out: Pigweed, Redroot damage rating (100=total damage to plant; 0=no damage to plant); for pest or weed control at 62.5 g/ha / pest or weed control at 250 g/ha: evaluated after 13 days; for pest or weed control at 250 g/ha: 250 g ai/ha, read-out: damage to plant, Pigweed, Redroot (100=total damage to plant; 0=no damage to plant)
Method in brief: as §2

SMILES	pest or weed control at 15.625 g/ha [1] [%]	pest or weed control at 62.5 g/ha [1] [%]	pest or weed control at 250 g/ha [1] [%]	pest or weed control at 15.625 g/ha [2] [%]	pest or weed control at 62.5 g/ha [2] [%]	pest or weed control at 250 g/ha [2] [%]	plant injury at 15.625 g/ha (corn (Zea mays) [3]) [%]	plant injury at 62.5 g/ha (corn (Zea mays) [3]) [%]	plant injury at 250 g/ha (corn (Zea mays) [3]) [%]	pest or weed control at 15.625 g/ha [4] [%]	pest or weed control at 62.5 g/ha [4] [%]	pest or weed control at 250 g/ha [4] [%]	pest or weed control at 15.625 g/ha [5] [%]	pest or weed control at 62.5 g/ha [5] [%]	pest or weed control at 250 g/ha [5] [%]	pest or weed control at 15.625 g/ha [6] [%]	pest or weed control at 62.5 g/ha [6] [%]	pest or weed control at 250 g/ha [6] [%]	pest or weed control at 15.625 g/ha [7] [%]	pest or weed control at 62.5 g/ha [7] [%]	further results
CC(C)c1cc(NC(=O)[C@@H]2C(=O)N(C)C[C@H]2c2ccc(C(F)(F)F)cc2)[nH]n1 (racemic) [Compound 1522]	0	0	0	0	0	0	0	0	0	0	0	0	0	0	0	0	0	0	0	0	pest or weed control at 250 g/ha [7]: 0%; pest or weed control at 15.625 g/ha [8]: 0%; pest or weed control at 62.5 g/ha [8]: 0%; pest or weed control at 250 g/ha [8]: 0%; plant injury at 15.625 g/ha (corn (Zea mays) [9]): 0%; plant injury at 62.5 g/ha (corn (Zea mays) [9]): 10%; plant injury at 250 g/ha (corn (Zea mays) [9]): 10%; pest or weed control at 15.625 g/ha [10]: 0%; pest or weed control at 62.5 g/ha [10]: 0%; pest or weed control at 250 g/ha [10]: 0%; pest or weed control at 15.625 g/ha [11]: 0%; pest or weed control at 62.5 g/ha [11]: 0%; pest or weed control at 250 g/ha [11]: 0%; pest or weed control at 15.625 g/ha [12]: 0%; pest or weed control at 62.5 g/ha [12]: 0%; pest or weed control at 250 g/ha [12]: 0%
CSc1nnc(NC(=O)[C@@H]2C(=O)N(C)C[C@H]2c2ccc(C(F)(F)F)cc2)[nH]1 (racemic) [Compound 1603]	0	0	0	0	0	0	0	0	0	0	0	0	0	0	0	0	0	0	0	0	pest or weed control at 250 g/ha [7]: 0%; pest or weed control at 15.625 g/ha [8]: 0%; pest or weed control at 62.5 g/ha [8]: 0%; pest or weed control at 250 g/ha [8]: 0%; plant injury at 15.625 g/ha (corn (Zea mays) [9]): 0%; plant injury at 62.5 g/ha (corn (Zea mays) [9]): 0%; plant injury at 250 g/ha (corn (Zea mays) [9]): 0%; pest or weed control at 15.625 g/ha [10]: 0%; pest or weed control at 62.5 g/ha [10]: 0%; pest or weed control at 250 g/ha [10]: 0%; pest or weed control at 15.625 g/ha [11]: 0%; pest or weed control at 62.5 g/ha [11]: 0%; pest or weed control at 250 g/ha [11]: 0%; pest or weed control at 15.625 g/ha [12]: 0%; pest or weed control at 62.5 g/ha [12]: 0%; pest or weed control at 250 g/ha [12]: 0%
